Test results reported in US20240041764A1, “Sustained-Release Oral Fosamprenavir Formulation for Treatment of Reflux” (The Medical College of Wisconsin, Inc., priority 2022, published 2024).
Entries after “also recorded” stand apart in the source; their conditions may differ.

System: LPR mouse model (pepsin-mediated laryngeal damage)
Assay: in vivo LPR mouse model: mechanical injury plus laryngeal pepsin instillation, H&E histology
Conditions: for protection against pepsin-mediated laryngeal damage (histology): 0.3 mg/ml pepsin pH7, 4 weeks
Excerpt: Three replicate animals per treatment condition were anticipated to suffice for verification of reproducibility in each experiment without excessive use of animal life. The three mice were randomly allocated to treatment groups. No data were excluded from analysis.
Six-week-old female Jackson A/J mice (Jackson Laboratory, Bar Harbor, ME) were fed D-62 powdered Wattenberg diet, 2 g/mouse/day^95 and allowed to acclimate for one week upon arrival prior to experiments. In accord with previously established methods for modeling aerodigestive tract damage attributed to GERD and LPR,^1,95-99 mechanical injury applied during the first two weeks of a four-week treatment course was used to predispose the laryngeal mucosa to chemical injury by pepsin/acid applied throughout the four weeks. […] Briefly, anesthetized mice were suspended by upper teeth on a slanted board under an operating microscope.
In a preliminary experiment to validate the LPR mouse model (i.e. laryngeal damage by pepsin at neutral and acidic pH), 20 μl saline (solvent control) or 0.3 mg/ml pepsin at pH7.0 or 4.0 were provided to mice (n=3) by laryngeal instillation at 24, 48, and 72 hours after mechanical injury during weeks 1 and 2 (FIG. 6); laryngeal instillation without wounding (3 days/week) continued during weeks 3 and 4. […] Mice were sacrificed at conclusion of the fourth week.
To test the protective effect of HIV protease inhibitors on pepsin-mediated damage in vivo, inhibitors were delivered by aerosol or gavage concurrently with wounding (days 2, 8) and solvent/pepsin instillation (days 3-5, 9-11, 16-18 and 23-25). Aerosol or gavage was provided on days 1-5, 8-12, 15-19, and 22-25, and mice sacrificed day 26. Mice were anesthetized with isoflurane (3% in 2.5LPM, 3-5 minutes prior to procedures) as opposed to Avertin due to frequency. […] Aerosol was generated as described^100. Briefly, a 10 ml suspension of drug in ethanol was placed in the baffle, such that the concentration would remain constant at the equilibrium solubility. Droplets of ethanol containing dissolved drug were generated by an ultrasonic atomizer (nominal frequency 1.7 MHz) and entrained by air at a flow rate of 0.5 LPM with a custom-built glass baffle (UMN Department of Chemistry Glass Shop). The aerosol cloud was then passed through a cylindrical drying column containing an annular ring of charcoal. The ethanol was removed and the emanating dry aerosol particles of pure drug were then directed into the exposure chamber. The mass deposited on filters was measured gravimetrically and total output rate (mg/min) was determined. The aerosol concentration (mass/volume of air) was calculated by dividing the total output rate by the air flow rate (0.5 LPM). The inhaled mass of drug (Minh) for each mouse was defined as Minh=[Aerosol]*RMV*t, where Aerosol is the aerosol concentration of drug, RMV is the respiratory minute volume of the mice (0.025 L/min), and t is the aerosol exposure time. […] Actual mass deposited was not determined but anticipated to be 10% of inhaled mass (the deposition fraction of […] aerosol particles in mice).
Tissues were collected, fixed in paraformaldehyde, embedded in paraffin and 4 um sections stained with hematoxylin and eosin (H&E) via automated stainer. Slides were reviewed by a board-certified pathologist (JM) blinded to treatment groups.

CC(C)CN(C[C@@H](O)[C@H](Cc1ccccc1)NC(=O)O[C@H]1CO[C@H]2OCC[C@H]21)S(=O)(=O)c1ccc(N)cc1 [darunavir, [(3aS,4R,6aR)-2,3,3a,4,5,6a-hexahydrofuro[2,3-b]furan-4-yl]N-[(2S,3R)-4-[(4-aminophenyl)sulfonyl-(2-methylpropyl)amino]-3-hydroxy-1-phenylbutan-2-yl]carbamate]
laryngeal histology, drug with saline (solvent), no pepsin (aerosol): absent | protection against pepsin-mediated laryngeal damage (histology) (aerosol, inhaled mass 0.93 mg/kg/day fosamprenavir, 12 mg/kg/day darunavir): moderate protection against pepsin-mediated damage; also recorded: mild protection against pepsin-mediated damage | laryngeal histology, drug with saline (solvent), no pepsin (gavage): Mild reactivity | protection against pepsin-mediated laryngeal damage (histology) (gavage, 20 mg/kg/day fosamprenavir (Lexiva), 8.6 mg/kg/day darunavir (Prezista)): obscured the ability to detect its effect on pepsin-mediated damage and not and appeared similar | laryngeal histology, drug with saline (solvent), no pepsin (gavage, listed as Darunavir): mild reactivity (rare intraepithelial lymphocytes)
